Experimental data from US10717968B2, “Polymerases for nucleotide analogue incorporation” (Pacific Biosciences of California, Inc., priority 2005, dated 2020).

Experiments:
Type in all cases: biochemical
[1] = test system: Alexa488-O-dA4P, FAM-Alexa532-O-dG4P, FAM-Alexa594-O-dT4P, Alexa633-O-dC4P; test: Screening: rate with set of four nucleotide analogues; settings: four analogues at 10 μM each, 1 mM MnCl2
A633dC4P = test: Screening: rate with A633dC4P and dA, dG, dTTP; settings: for Rate High: 25 μM A633dC4P with 20 μM dA; for Ratio (Low/High): (rate at 5 μM A633dC4P)/(rate at 25 μM A633dC4P), each with 20 μM dA, 1 mM MnCl2, higher ratio = lower Km
dTTP, dATP, dGTP = test: Assay with three native nucleotides (dGTP, dTTP and dATP); settings: three native nucleotides at 20 μM; circular template, no G residues
Method: (§1) The Φ29 DNA polymerase (parental enzyme or mutant) was preincubated with DNA template (72 nucleotide circular DNA including mostly repetitive sequence AGTC) with annealed DNA primer. The preincubation mix includes three native nucleotides (dTTP, dATP and dGTP) and a terminal labeled nucleotide analogue (A488dC4P or A568dC4P) at 10 μM concentration. After a short preincubation, the reaction was started with MnCl2. The reaction was stopped with EDTA, and the products were separated using agarose gel electrophoresis and stained with SYBR Gold (Invitrogen). The average length of the DNA generated with DNA polymerase was determined and used to estimate the polymerization rate. See, e.g., Table 2 Columns G and H.
The Φ29 DNA polymerase (parental enzyme or mutant) was preincubated with DNA template (circular DNA including mostly repetitive sequence CAT, no G residues) with annealed DNA primer; the preincubation mix includes three native nucleotides (dTTP, dATP and dGTP). All subsequent steps were basically as described above in the section entitled “Assay with a single analogue at low concentration (10 μM) and three native nucleotides.” See, e.g., Table 2 Column B.

A568dC4P [2] = test: Assay with a single analogue at low concentration (10 μM) and three native nucleotides, A568dC4P; settings: single analogue at 10 μM and three native nucleotides
Method: as §1

A568dC4P [3] = test: Nucleotide analogue concentration dependence of the polymerization rate, A568dC4P; settings: circular AGTC template; dTTP, dATP, dGTP 20 μM each
Method: (§2) The most promising polymerase mutants are characterized by determination of the polymerization rate and Km for A488dC4P and A568dC4P and a subset of natural nucleotides (dATP, dGTP and dTTP), using a circular template (AGTC). Velocity is measured at several different concentrations of the analogs, A488dC4P (a representative good substrate) and A568dC4P (a representative less preferred substrate).
(§3) The Φ29 DNA polymerase (parental enzyme or mutant) was preincubated with a DNA template (72 nucleotide circular DNA including mostly repetitive sequence AGTC) with annealed DNA primer. The preincubation mix includes also three native nucleotides (dTTP, dATP and dGTP 20 μM each) and various concentrations of the terminally labeled analogue (A488dC4P or A568dC4P). All subsequent steps were basically as described above in the section entitled “Assay with a single analogue at low concentration (10 μM) and three native nucleotides.” An average length of the DNA products generated with DNA polymerase at an individual analogue concentration was determined, and the results were fitted with the equation k=kel*[S]*(Kd+[S])^−1 where k is the observed polymerization rate, kel is the polymerization rate at saturating substrate concentration (kel measures incorporation of multiple residues), and [S] is substrate concentration. See, e.g., Table 2 Columns C, D, E, and F.

A488dC4P [4] = test: Assay with a single analogue at low concentration (10 μM) and three native nucleotides, A488dC4P; settings: single analogue at 10 μM and three native nucleotides
Method: as §1

[5] = test system: A488dA4P, A633dC4P, A546dG4P, A594dT4P; test: Assay with four terminally labeled nucleotide analogs; settings: four terminally labeled analogs all at 10 μM
Method: Polymerization rate (bases/min) with four analogues at 10 μM (A488dA4P, A633dC4P, A546dG4P and A594dT4P) and circular template (AGTC, a 72mer circular template largely consisting of a repeating AGTC motif) is determined.
The procedure is basically as described above in the section entitled “Assay with a single analogue at low concentration (10 μM) and three native nucleotides,” with the exception that in this assay all nucleotides are terminally labeled (A488dA4P, A633dC4P, A546dG4P, A594dT4P all at 10 μM). See, e.g., Table 2 Column I.

A488dC4P [6] = test: Nucleotide analogue concentration dependence of the polymerization rate, A488dC4P; settings: circular AGTC template; dTTP, dATP, dGTP 20 μM each
Method: as §2, §3

[7] = test system: DNA template (72 nucleotide circular DNA) with annealed DNA primer; test: Processivity assay; settings: dNTP, MnCl2, heparin trap, 20 min; 1.0 minus Poff
Description: The processivity (dissociation/kb) of the polymerase is estimated in a primer extension reaction performed in the presence of “Trap” (unlabeled competitor DNA or heparin). The processivity assay is designed to select mutants that retain the capability to synthesize a long DNA product in a continuous polymerization run (without polymerization reinitiation) with natural nucleotides. Mutants with a significant decrease in processivity are not selected for the next step.
The Φ29 DNA polymerase (parental enzyme or mutant) was preincubated with DNA template (72 nucleotide circular DNA including mostly repetitive sequence AGTC) with annealed DNA primer. After a short preincubation, the reaction was started with a starting mix including MnCl2, dNTP and heparin. Including the heparin in the reaction prevents polymerization from reinitiating after the polymerase dissociates from the template/primer, so that all generated DNA products are a result of continuous polymerization runs. After 20 min incubation, the reaction was stopped with EDTA and the products were separated using agarose gel electrophoresis and stained with SYBR Gold (Invitrogen). The DNA products were analyzed basically as described in Bibillo A, Eickbush T H. J Biol Chem. 2002 Sep. 20; 277(38):34836-45, Epub 2002 Jul. 5. The results were fitted with single exponential equation A*exp(−Poff*kb) where A is amplitude, Poff is the probability of premature polymerase dissociation, and kb is DNA length (1000 nucleotides). The probability of chain elongation (processivity) can be readily calculated by subtracting the Poff value from 1.0. See, e.g., Table 2 Column J.

[8] = test system: natural (native) nucleotides; test: Initial characterization: specific activity with natural (native) nucleotides
Method: The recombinant polymerase is initially evaluated on the quality of the protein preparation and basic catalytic activity. The polymerase's activity is analyzed with natural (native) nucleotides, and its specific activity (units/mg) is determined. Only catalytically competent mutants are selected for the next steps.

Substance	Hz Rate [1] [Hz]	Rate High (A633dC4P)	Ratio (Low/High) (A633dC4P)	dTTP, dATP, dGTP (no G fork) V at 20 μM (dTTP, dATP, dGTP)	A568dC4P, V at 10 μM (A568dC4P [2])	A568dC4P, kel (A568dC4P [3])	Km (A568dC4P [3]) [µM]	A488dC4P, V at 10 μM (A488dC4P [4])	A488dA4P, A633dC4P, A546dG4P, A594dT4P, V at 10 μM [5]	A488dC4P, kel (A488dC4P [6]) [bp/min]	Km (A488dC4P [6]) [µM]	Processivity [7] [kb^−1]	Specific Activity [8]
D12A: GST-His tagged Phi29 polymerase with exonuclease-reducing D12A mutation, no background mutation [reference compound]	1.2	55.3	0.888	–	–	–	–	–	–	–	–	–	–
E375A: His-tagged Phi29 polymerase with E375A and background N62D mutation	5.8	465.9	0.383	–	–	–	–	–	–	–	–	–	–
E375Q: His-tagged Phi29 polymerase with E375Q and background N62D mutation	6.3	531.6	0.356	–	–	–	–	–	–	–	–	–	–
GST-N62D: GST-His-S tagged Phi 29 DNA polymerase with exonuclease-reducing N62D mutation (SEQ ID NO:2); parental enzyme [reference compound]	2.8	349.3	0.355	780	236	1660	74	346	65	1200	20	0.9799	–
His-E486A-N62D: His-tagged Phi 29 polymerase with E486A and N62D mutations (SEQ ID NOs:9, 30)	1.0	152.5	0.441	1690	118	–	–	303	15	–	–	0.9875	4,133,000 units/mg
His-E486D-N62D: His-tagged Phi 29 polymerase with E486D and N62D mutations (SEQ ID NOs:10, 31)	0.9	142.0	0.467	–	134	–	–	220	15	–	–	0.9885	11,634,000 units/mg
His-K135A-N62D: His-tagged Phi 29 polymerase with K135A and N62D mutations (SEQ ID NOs:3, 24)	1.6	272.0	0.412	840	154	–	–	292	43	880	24	0.9801	12,454,000 units/mg
His-K512A-N62D: His-tagged Phi 29 polymerase with K512A and N62D mutations (SEQ ID NOs:11, 32)	1.4	347.7	0.335	–	196	–	–	359	34	–	–	0.9821	16,073,000 units/mg
His-N62D: His-tagged N62D Phi 29 DNA polymerase; parental enzyme [reference compound]	2.7	373.2	0.362	750	237	–	–	391	68	1020	21	0.9754	–
L384R: His-tagged Phi29 polymerase with L384R and N62D mutations (SEQ ID NOs:8, 29)	−0	79.6	0.768	–	–	–	–	–	–	–	–	–	–
T15I N62D: His-tagged Phi29 polymerase with T15I and background N62D mutation (Table 5 r22)	0.0	105.9	0.726	–	–	–	–	–	–	–	–	–	–
T15I: His-tagged Phi29 polymerase with T15I mutation only, no background mutation (Table 5 r13)	3.0	416.5	0.355	–	–	–	–	–	–	–	–	–	–
